Test results: patent US20180020662A1, “Substituted 1-cycloalkyl-2-oxotetrahydroquinolin-6-ylsulfonamides or salts thereof and use thereof to increase stress tolerance in plants” (BAYER CROPSCIENCE AKTIENGESELLSCHAFT, priority 2015, published 2018)

Experiments:
[1] = target: T1, phosphatase ABI1 via the co-regulator RCAR11/PYR1 (Arabidopsis thaliana, UniProt O49686+P49597); assay: In vitro assay: inhibition of ABI1 dephosphorylation of 4-methylumbelliferyl phosphate (MUP), fluorescence; format: biochemical; conditions: concentration of 5 mM of the substance in DMSO and water, 35° C., 20 minutes
T1 sequence (O49686 1-191): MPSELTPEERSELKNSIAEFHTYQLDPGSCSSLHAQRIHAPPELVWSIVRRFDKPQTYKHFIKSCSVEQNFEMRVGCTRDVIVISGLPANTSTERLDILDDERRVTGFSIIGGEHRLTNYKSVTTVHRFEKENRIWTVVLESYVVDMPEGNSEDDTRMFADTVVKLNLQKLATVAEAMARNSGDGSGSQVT
T1 sequence (P49597 1-434): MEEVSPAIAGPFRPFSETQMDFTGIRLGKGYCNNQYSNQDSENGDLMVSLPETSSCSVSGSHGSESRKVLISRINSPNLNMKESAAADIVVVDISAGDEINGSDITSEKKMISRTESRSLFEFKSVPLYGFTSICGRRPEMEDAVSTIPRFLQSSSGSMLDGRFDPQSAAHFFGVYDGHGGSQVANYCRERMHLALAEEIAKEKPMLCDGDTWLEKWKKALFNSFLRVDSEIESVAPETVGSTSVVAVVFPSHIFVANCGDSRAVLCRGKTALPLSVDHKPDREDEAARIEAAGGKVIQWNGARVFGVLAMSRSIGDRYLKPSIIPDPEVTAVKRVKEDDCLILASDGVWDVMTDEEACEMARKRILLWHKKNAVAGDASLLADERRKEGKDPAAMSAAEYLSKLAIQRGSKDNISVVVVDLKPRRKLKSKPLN
Text: Effects of the phytohormone abscisic acid (ABA) on the behavior of plants under abiotic stress and the mechanism of action of ABA are described in the literature (cf. Abrams et al., WO97/23441, Park et al. Science, 2009, 324, 1068; Grill et al. Science, 2009, 324, 1064; Tanokura et al. Biophysics, 2011, 7, 123; Schroeder et al. Plant J. 2010, 61, 290). Therefore, it is possible with the aid of a suitable in vitro test system to derive a correlation between the action of ABA and the stress response of a plant under abiotic stress. In the event of water deficiency (drought stress), plants form the phytohormone abscisic acid (ABA). This binds, along with a co-regulator (Regulatory Component of ABA-Receptor=RCAR according to Grill et al. Science, 2009, 324, 1064 or PYR/PYL according to Cutler et al. Science, 2009, 324, 1068), to a phosphatase (e.g. ABI1, a type 2C protein phosphatase, also abbreviated to PP2C) and inhibits its activity. As a result, a “downstream” kinase (e.g. SnRK2) is no longer dephosphorylated. This kinase, which is thus active, via phosphorylation of transcription factors (e.g. AREB/ABF, cf. Yoshida et al Plant J. 2010, 61, 672), switches on a genetic protection program to increase drought stress tolerance. The assay described hereinafter utilizes the inhibition of the phosphatase ABI1 via the co-regulator RCAR11/PYR1 aus Arabidopsis thaliana. For the determination of activity, the dephosphorylation of 4-methylumbelliferyl phosphate (MUP) was measured at 460 nm. The in vitro assay was conducted in Greiner 384-well PS microplates F-well, using two controls: a) 0.5% dimethyl sulfoxide (DMSO) and b) 5 μM abscisic acid (ABA). The assay described here was generally conducted with substance concentrations of the appropriate chemical test substances in a concentration range of 0.1 μM to 100 μM in a solution of DMSO and water. The substance solution thus obtained, if necessary, was stirred with esterase from porcine liver (EC 3.1.1.1) at room temperature for 3 h and centrifuged at 4000 rpm for 30 min. A total volume of 45 μl was introduced into each cavity of the microplate, having the following composition: • 1) 5 μl of substance solution, i.e. a) DMSO 5% or b) abscisic acid solution or c) the corresponding example compound of the general formula (I) dissolved in 5% DMSO. • 2) 20 μl of enzyme buffer mix, composed of a) 40% by vol. of enzyme buffer (10 ml contain equal proportions by volume of 500 mM Tris-HCl pH 8, 500 mM NaCl, 3.33 mM MnCl2, 40 mM dithiothreitol (DTT)), b) 4% by vol. of ABI1 dilution (protein stock solution was diluted so as to give, after addition, a final concentration in the assay of 0.15 μg ABI1/well), c) 4% by vol. of RCAR11 dilution (enzyme stock was diluted so as to give, on addition of the dilution to the enzyme buffer mix, a final concentration in the assay of 0.30 μg enzyme/well), d) 5% by vol. of Tween20 (1%), e) 47% by vol. H2O bi-dist. • 3) 20 μl of substrate mix, composed of a) 10% by vol. of 500 mM Tris-HCl pH 8, b) 10% by vol. of 500 mM NaCl, c) 10% by vol. of 3.33 mM MnCl2, d) 5% by vol. of 25 mM MUP, 5% by vol. of Tween20 (1%), 60% by vol. of H2O bi-dist.
Enzyme buffer mix and substrate mix were made up 5 minutes prior to the addition and warmed to a temperature of 35° C. On completion of pipetting of all the solutions and on completion of mixing, the plate was incubated at 35° C. for 20 minutes. Finally, a relative fluorescence measurement was made at 35° C. with a BMG Labtech “POLARstar Optima” microplate reader using a 340/10 nm excitation filter and a 460 nm emission filter. The efficacy of the compounds of the general formula (I) is reported in the table which follows using abscisic acid […] as comparative substance (no. 38) according to the following classification: ++++(inhibition ≧90%), +++(90% >inhibition ≧70%), ++(70% >inhibition ≧50%), +(50% >inhibition ≧30%). […]

Triticum aestivum = assay: Drought stress test on potted crop plants, spray application, visual scoring against stressed control plants; format: in vivo; design: key: 0: no positive effect; +: slight positive effect; ++: clear positive effect; +++: strong positive effect; conditions: mean of at least three repeats
Protocol: (§1) Seeds of monocotyledonous and dicotyledonous crop plants were sown in sandy loam in plastic pots, covered with soil or sand and cultivated in a greenhouse under good growth conditions. The test plants are treated at the early leaf stage (BBCH10-BBCH13). To assure uniform water supply before commencement of stress, the potted plants were supplied with water by dam irrigation prior to substance application. The inventive compounds were first formulated as wettable powders (WP) or dissolved in a solvent mixture. The further dilution was effected with water supplemented with 0.2% wetting agent (e.g. agrotin). The finished spray liquor was sprayed onto the green parts of the plant at an equivalent water application rate of 600 I/ha. Substance application was followed immediately by stress treatment of the plants. Drought stress was induced by gradual drying out under the following conditions: “Day”: 14 hours with illumination at […]. “Night”: 10 hours without illumination at […]. The duration of the respective stress phases was guided mainly by the condition of the stressed control plants. It was ended (by re-irrigating and transfer to a greenhouse with good growth conditions) as soon as irreversible damage was observed on the stressed control plants. The end of the stress phase was followed by an about 4-7-day recovery phase, during which the plants were once again kept under good growth conditions in a greenhouse. The duration of the recovery phase was guided mainly by when the trial plants had attained a state which enabled visual scoring of potential effects, and was therefore variable. Once this juncture had been reached, the appearance of the plants treated with test substances was recorded in comparison to the stressed control plants by the following categories: • 0 no positive effect • + slight positive effect • ++ clear positive effect • +++ strong positive effect In order to rule out any influence on the effects observed by any fungicidal or insecticidal action of the test compounds, it was additionally ensured that the tests proceeded without fungal infection or insect infestation. The values reported in tables A-1 and A-2 below are mean values of the results from at least three repeats. Effects of selected compounds of the general formula (I) under drought stress according to the following tables A-1 and A-2: In the above tables: BRSNS =Brassica napus TRZAS =Triticum aestivum

Brassica napus = assay: as above; format: in vivo; design: key: 0: no positive effect; +: slight positive effect; ++: clear positive effect; +++: strong positive effect; conditions: mean of at least three repeats
Protocol: as §1

Structure (SMILES)	ABI1 inhibition [1]	Effect (TRZAS) (Triticum aestivum; dosage 250 g/ha)	Effect (BRSNS) (Brassica napus; dosage 250 g/ha)	Effect (TRZAS) (Triticum aestivum; dosage 25 g/ha)	Effect (BRSNS) (Brassica napus; dosage 25 g/ha)
CC1(N2C(=O)CCc3cc(NS(=O)(=O)Cc4ccc(Cl)cc4)ccc32)CC1 [A1-165, 1-(4-Chlorophenyl)-N-[1-(1-methylcyclopropyl)-2-oxo-1,2,3,4-tetrahydroquinolin-6-yl]methanesulfonamide]	++++ (inhibition ≧90%)	+	++		
CC1(N2C(=O)CCc3cc(NS(=O)(=O)Cc4cccc(Cl)c4)ccc32)CC1 [A1-166]	+++ (90% >inhibition ≧70%)		++		
CC1(N2C(=O)CCc3cc(NS(=O)(=O)Cc4ccc(C#N)cc4)ccc32)CC1 [A1-181]	++++ (inhibition ≧90%)	+	++		
O=C1CCc2cc(NS(=O)(=O)Cc3ccc(Cl)cc3)ccc2N1C1(C2CC2)CC1 [A3-165]	++++ (inhibition ≧90%)	+			
N#Cc1ccc(S(=O)(=O)Nc2ccc3c(c2)CCC(=O)N3C2CC2C2CC2)cc1 (centres unmarked) [A16-45]				+	++
CC1CC(N2C(=O)CCc3cc(NS(=O)(=O)Cc4ccc(F)cc4)ccc32)C1 (centres unmarked) [A26-158]	++++ (inhibition ≧90%)				+
O=C1CCc2cc(NS(=O)(=O)Cc3ccc(Cl)cc3)ccc2N1C12CC(C1)C2 [A30-165]	++++ (inhibition ≧90%)	++			

Continued, in another order:

ABI1 inhibition [1]	Structure (SMILES)	Effect (TRZAS) (Triticum aestivum; dosage 250 g/ha)	Effect (BRSNS) (Brassica napus; dosage 250 g/ha)	Effect (TRZAS) (Triticum aestivum; dosage 25 g/ha)	Effect (BRSNS) (Brassica napus; dosage 25 g/ha)
++++ (inhibition ≧90%)	O=C1CCc2cc(NS(=O)(=O)Cc3ccc(F)cc3)ccc2N1C1(C2CC2)CC1 [A3-158]	+			
++++ (inhibition ≧90%)	N#Cc1ccc(CS(=O)(=O)Nc2ccc3c(c2)CCC(=O)N3C2(C3CC3)CC2)cc1 [A3-181]			+	
+++ (90% >inhibition ≧70%)	Cc1cccc(CS(=O)(=O)Nc2ccc3c(c2)CCC(=O)N3C23CC(C2)C3)c1 [A30-153]		+		
++++ (inhibition ≧90%)	O=C1CCc2cc(NS(=O)(=O)Cc3ccc(F)cc3)ccc2N1C12CC(C1)C2 [A30-158]			+	
+++ (90% >inhibition ≧70%)	O=C1CCc2cc(NS(=O)(=O)Cc3ccc(Cl)cc3)ccc2N1C1CC1C(F)(F)F (centres unmarked) [A37-165]	++			
